Experimental data taken from ChEMBL document CHEMBL1909046, “DrugMatrix in vitro pharmacology data”.

Experiments:
[1] = target: T1, Muscarinic acetylcholine receptor M2 (Homo sapiens, UniProt P08172); assay type: cell membranes, CHO-K1, Membrane; settings: cho-k1; note: in other assays of this panel Not Active means under 50% inhibition at 10 µM
T1 sequence (P08172 whole entry): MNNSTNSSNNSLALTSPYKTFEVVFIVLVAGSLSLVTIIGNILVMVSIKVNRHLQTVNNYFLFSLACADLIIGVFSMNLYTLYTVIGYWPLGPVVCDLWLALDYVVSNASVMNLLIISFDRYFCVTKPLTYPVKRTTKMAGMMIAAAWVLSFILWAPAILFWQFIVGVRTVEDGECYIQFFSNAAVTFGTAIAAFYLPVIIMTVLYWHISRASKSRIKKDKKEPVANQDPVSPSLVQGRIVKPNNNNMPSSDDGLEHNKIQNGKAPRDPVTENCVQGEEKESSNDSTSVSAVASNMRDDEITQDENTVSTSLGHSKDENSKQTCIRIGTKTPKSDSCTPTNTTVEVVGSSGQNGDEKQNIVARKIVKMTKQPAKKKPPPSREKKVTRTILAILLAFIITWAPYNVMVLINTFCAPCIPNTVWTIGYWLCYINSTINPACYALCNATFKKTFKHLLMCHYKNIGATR

[2] = target: T2, Leukotriene C4 synthase (Cavia porcellus, UniProt A6XA80); test: biochemical; assay type: tissue-based, Lung;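 note: enzyme inhibition assay of leukotriene C4 synthase, using LTA4 as the substrate; in other assays of this panel Not Active means under 50% inhibition at 10 µM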
T2 sequence (A6XA80 whole entry): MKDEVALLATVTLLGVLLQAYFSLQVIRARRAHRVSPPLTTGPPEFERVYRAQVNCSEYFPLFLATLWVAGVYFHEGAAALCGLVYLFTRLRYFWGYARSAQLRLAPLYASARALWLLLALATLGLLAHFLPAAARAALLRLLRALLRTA

[3] = target: T3, Caspase-1 (Homo sapiens, UniProt P29466); set-up: species or system Escherichia coli;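 note: Caspase-1 enzyme inhibition assay with a peptide substrate; in other assays of this panel Not Active means under 50% inhibition at 10 µM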
T3 sequence (P29466 whole entry): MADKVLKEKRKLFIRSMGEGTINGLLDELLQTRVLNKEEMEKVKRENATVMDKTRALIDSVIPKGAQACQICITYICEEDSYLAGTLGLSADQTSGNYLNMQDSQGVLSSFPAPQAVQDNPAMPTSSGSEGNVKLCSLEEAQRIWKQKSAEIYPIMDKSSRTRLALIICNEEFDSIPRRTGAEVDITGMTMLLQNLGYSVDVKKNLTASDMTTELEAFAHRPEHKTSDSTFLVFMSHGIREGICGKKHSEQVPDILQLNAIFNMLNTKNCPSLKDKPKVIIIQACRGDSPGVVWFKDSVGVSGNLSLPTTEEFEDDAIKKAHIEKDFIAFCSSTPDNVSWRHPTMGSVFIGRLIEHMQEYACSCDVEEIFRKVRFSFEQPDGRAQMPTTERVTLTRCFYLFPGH

[4] = target: Protein phosphatase 3 catalytic subunit alpha (Homo sapiens, UniProt Q08209); set-up: species or system Escherichia coli;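 note: inhibition of calcineurin (PP2B) enzyme activity, measured with DiFMUP as the substrate; in other assays of this panel Not Active means under 50% inhibition at 10 µM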
[5] = DRUGMATRIX: Calcium Channel Type L, Dihydropyridine radioligand binding (ligand: [3H] Nitrendipine); assay type: cell membranes, Rattus norvegicus, Wistar, Cerebral cortex, Membrane; settings: Not Active = under 50% inhibition at 10 µM
[6] = target: T4, Cytochrome P450 2A6 (Homo sapiens, UniProt P11509); settings: bti-tn-5b1-4; note: in other assays of this panel Not Active means under 50% inhibition at 10 µM
T4 sequence (P11509 whole entry): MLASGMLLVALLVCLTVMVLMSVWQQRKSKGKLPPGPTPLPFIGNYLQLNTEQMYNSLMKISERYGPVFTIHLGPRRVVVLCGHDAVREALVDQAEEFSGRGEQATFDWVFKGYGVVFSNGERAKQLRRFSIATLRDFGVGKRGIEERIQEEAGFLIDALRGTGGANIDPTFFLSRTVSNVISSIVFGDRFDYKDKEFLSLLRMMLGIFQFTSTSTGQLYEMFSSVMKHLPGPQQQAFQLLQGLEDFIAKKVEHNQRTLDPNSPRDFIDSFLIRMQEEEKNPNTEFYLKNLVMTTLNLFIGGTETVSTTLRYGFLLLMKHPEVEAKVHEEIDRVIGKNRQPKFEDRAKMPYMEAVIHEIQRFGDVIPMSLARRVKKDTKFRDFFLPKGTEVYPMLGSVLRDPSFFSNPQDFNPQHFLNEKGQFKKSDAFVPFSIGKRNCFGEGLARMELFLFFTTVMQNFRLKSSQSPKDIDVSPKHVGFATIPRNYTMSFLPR

[7] = DRUGMATRIX: Purinergic P2X radioligand binding (ligand: [3H] alpha, beta-Methylene-ATP); assay type: cell membranes, Oryctolagus cuniculus, New Zealand albino, Urinary bladder, Membrane; settings: Not Active = under 50% inhibition at 10 µM
[8] = target: Melanocortin receptor 4 (Homo sapiens, UniProt P32245); assay type: cell membranes, Membrane; settings: hek293; note: in other assays of this panel Not Active means under 50% inhibition at 10 µM
Melanocortin receptor 4, sequence (P32245 whole entry): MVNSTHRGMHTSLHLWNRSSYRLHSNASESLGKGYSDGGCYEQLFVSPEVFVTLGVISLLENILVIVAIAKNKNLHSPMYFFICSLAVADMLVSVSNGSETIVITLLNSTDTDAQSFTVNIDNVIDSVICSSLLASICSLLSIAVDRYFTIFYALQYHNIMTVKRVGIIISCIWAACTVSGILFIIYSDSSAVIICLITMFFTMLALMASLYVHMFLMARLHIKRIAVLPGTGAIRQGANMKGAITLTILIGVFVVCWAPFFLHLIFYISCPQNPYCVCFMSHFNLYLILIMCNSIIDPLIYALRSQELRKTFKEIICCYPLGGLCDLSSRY

COc1ccccc1OCCNCC(O)COc1cccc2[nH]c3ccccc3c12 (stereo not drawn) [CARVEDILOL]
Not Active: IC50 [1] | IC50 [2] | IC50 [3] | IC50 [4] | IC50 [5] | Ki [5] | IC50 [6] | Ki [6] | IC50 [7] | Ki [7] | IC50 [8]

CC(N)Cc1c[nH]c2ccc(OCc3cccs3)cc12 (stereo not drawn) [BW-723C86]
Not Active: IC50 [1] | IC50 [2] | IC50 [3] | IC50 [4] | IC50 [5] | Ki [5] | IC50 [6] | Ki [6] | IC50 [7] | Ki [7] | IC50 [8]

c1ccc2c(c1)Nc1ccccc1S2 [PHENOTHIAZINE]
Not Active: IC50 [1] | IC50 [2] | IC50 [3] | IC50 [4] | IC50 [5] | Ki [5] | IC50 [6] | Ki [6] | IC50 [7] | Ki [7] | IC50 [8]

POVIDONE
Not Active: IC50 [1] | Ki [1] | IC50 [2] | Ki [2] | IC50 [3] | Ki [3] | IC50 [4] | Ki [4] | IC50 [5] | Ki [5] | IC50 [6] | Ki [6] | IC50 [7] | Ki [7] | IC50 [8] | Ki [8]

CCO [ALCOHOL]
Not Active: IC50 [1] | IC50 [2] | IC50 [3] | IC50 [4] | IC50 [5] | Ki [5] | IC50 [6] | Ki [6] | IC50 [7] | Ki [7] | IC50 [8]

Clc1cc(Cl)c(OCC#CI)cc1Cl [HALOPROGIN]
Not Active: IC50 [1] | IC50 [2] | IC50 [3] | IC50 [4] | IC50 [5] | Ki [5] | IC50 [6] | Ki [6] | IC50 [7] | Ki [7] | IC50 [8]

CHROMIC CHLORIDE
Not Active: IC50 [1] | Ki [1] | IC50 [2] | Ki [2] | IC50 [3] | Ki [3] | IC50 [4] | Ki [4] | IC50 [5] | Ki [5] | IC50 [6] | Ki [6] | IC50 [7] | Ki [7] | IC50 [8] | Ki [8]

Nc1ccc(Cc2ccc(N)cc2)cc1
Not Active: IC50 [1] | IC50 [2] | IC50 [3] | IC50 [4] | IC50 [5] | Ki [5] | IC50 [6] | Ki [6] | IC50 [7] | Ki [7] | IC50 [8]

COc1cc([C@@H]2c3cc4c(cc3[C@H](O)[C@H]3COC(=O)[C@H]23)OCO4)cc(OC)c1OC [PODOFILOX]
Not Active: IC50 [1] | IC50 [2] | IC50 [3] | IC50 [4] | IC50 [5] | Ki [5] | IC50 [6] | Ki [6] | IC50 [7] | Ki [7] | IC50 [8]

OC[C@H]1OC2C3[C@@H](CO)OC(O[C@H]4[C@H](O)[C@@H](O)[C@@H](O[C@H]5[C@H](O)[C@@H](O)[C@@H](O[C@H]6[C@H](O)[C@@H](O)[C@@H](O[C@H]7[C@H](O)[C@@H](O)[C@@H](O[C@H]8[C@H](O)[C@@H](O)[C@@H](O[C@H]9[C@H](O)[C@@H](O)C(OC1[C@H](O)[C@H]2O)O[C@@H]9CO)O[C@@H]8CO)O[C@@H]7CO)O[C@@H]6CO)O[C@@H]5CO)O[C@@H]4CO)[C@H](O)[C@H]3O
Not Active: IC50 [1] | IC50 [2] | IC50 [3] | IC50 [4] | IC50 [5] | Ki [5] | IC50 [6] | Ki [6] | IC50 [7] | Ki [7] | IC50 [8]

Nc1ccc(C(=O)O)c(O)c1 [AMINOSALICYLIC ACID]
Not Active: IC50 [1] | IC50 [2] | IC50 [3] | IC50 [4] | IC50 [5] | Ki [5] | IC50 [6] | Ki [6] | IC50 [7] | Ki [7] | IC50 [8]

O=c1[nH]cnc2c1ncn2[C@H]1CC[C@@H](CO)O1 [DIDANOSINE]
Not Active: IC50 [1] | IC50 [2] | IC50 [3] | IC50 [4] | IC50 [5] | Ki [5] | IC50 [6] | Ki [6] | IC50 [7] | Ki [7] | IC50 [8]

CCCCCCNC(=O)n1cc(F)c(=O)[nH]c1=O [CARMOFUR]
Not Active: IC50 [1] | IC50 [2] | IC50 [3] | IC50 [4] | IC50 [5] | Ki [5] | IC50 [6] | Ki [6] | IC50 [7] | Ki [7] | IC50 [8]
